Experimental findings from ChEMBL document CHEMBL1144858, “3D-QSAR CoMFA studies on bis-coumarine analogues as urease inhibitors: a strategic design in anti-urease agents” (Bioorg Med Chem, 2008) are described below.

The target in this test is Urease (Canavalia ensiformis, UniProt P07374). Kind of test: Inhibition of jack bean urease.

As usually defined, the IC50 is the point on the concentration scale where inhibition reaches its midpoint. Low readings indicate higher potency, high ones lower potency.

Molecules are shown by their SMILES.

Chain of Urease (P07374 whole entry): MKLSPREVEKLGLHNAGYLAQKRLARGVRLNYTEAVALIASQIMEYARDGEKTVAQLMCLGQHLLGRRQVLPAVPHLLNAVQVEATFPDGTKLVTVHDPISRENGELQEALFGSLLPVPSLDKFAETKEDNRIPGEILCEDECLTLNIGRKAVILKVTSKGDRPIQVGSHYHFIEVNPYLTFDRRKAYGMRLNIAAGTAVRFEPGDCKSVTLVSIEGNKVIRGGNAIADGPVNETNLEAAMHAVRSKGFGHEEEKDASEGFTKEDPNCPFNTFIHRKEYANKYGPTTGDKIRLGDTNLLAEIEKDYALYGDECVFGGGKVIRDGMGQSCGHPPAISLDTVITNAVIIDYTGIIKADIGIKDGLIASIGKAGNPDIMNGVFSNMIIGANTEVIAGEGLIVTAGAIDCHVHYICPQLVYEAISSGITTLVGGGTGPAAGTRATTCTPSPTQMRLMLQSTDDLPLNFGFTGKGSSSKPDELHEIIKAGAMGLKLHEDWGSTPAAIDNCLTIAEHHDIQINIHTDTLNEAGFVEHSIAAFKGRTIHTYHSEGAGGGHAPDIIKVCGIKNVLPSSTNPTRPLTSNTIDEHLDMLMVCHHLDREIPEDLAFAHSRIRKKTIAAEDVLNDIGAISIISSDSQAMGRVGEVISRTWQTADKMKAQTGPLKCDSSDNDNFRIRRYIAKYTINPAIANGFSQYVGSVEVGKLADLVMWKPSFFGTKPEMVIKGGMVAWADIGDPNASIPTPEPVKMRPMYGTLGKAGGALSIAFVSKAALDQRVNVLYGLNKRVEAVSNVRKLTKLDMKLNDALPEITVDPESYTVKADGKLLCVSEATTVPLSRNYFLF

`COc1cc(C(c2c(O)oc3ccccc3c2=O)c2c(O)oc3ccccc3c2=O)cc(OC)c1OC`: the midpoint of inhibition, the IC50, lay at 83.2 µM. This counts as double-digit micromolar. As to `CC(C)c1ccc(C(c2c(O)oc3ccccc3c2=O)c2c(O)oc3ccccc3c2=O)cc1`, half-maximal inhibition (IC50) required 83.2 µM. That is a double-digit micromolar value.

As for `COc1ccc(C(c2c(O)c3ccccc3oc2=O)c2c(O)c3ccccc3oc2=O)cc1`, half-maximal inhibition (IC50) was put at 60.3 µM. Take `O=c1oc2ccccc2c(O)c1C(c1c(O)c2ccccc2oc1=O)c1c[nH]c2ccccc12`: the IC50 was 61.7 µM. As to `CCCCCC(c1c(O)c2ccccc2oc1=O)c1c(O)c2ccccc2oc1=O`, the IC50 was 87.1 µM.

`O=c1oc2ccccc2c(O)c1C(c1ccncc1)c1c(O)c2ccccc2oc1=O` had an IC50 of 58.9 µM. The IC50 values of the last two molecules are within 1.5-fold of each other. In the case of `O=c1oc2ccccc2c(O)c1C(/C=C/c1ccccc1)c1c(O)c2ccccc2oc1=O` it was 60.3 µM; in that of `O=c1oc2ccccc2c(O)c1C(c1cccnc1)c1c(O)c2ccccc2oc1=O`, 35.5 µM.

For the molecule `O=c1oc2ccccc2c(O)c1C(c1ccccc1Cl)c1c(O)c2ccccc2oc1=O`, half-maximal inhibition (IC50) required 85.1 µM. For the molecule `CC(c1ccccc1)C(c1c(O)c2ccccc2oc1=O)c1c(O)c2ccccc2oc1=O` (stereo not drawn), the concentration for half-maximal inhibition (IC50) was 52.5 µM. Turning to `CCOc1cc(C(c2c(O)c3ccccc3oc2=O)c2c(O)c3ccccc3oc2=O)ccc1O`, the IC50 was 91.2 µM. As for `O=c1oc2ccccc2c(O)c1C(c1ccc[nH]1)c1c(O)c2ccccc2oc1=O`, the figure is 46.8 µM. Regarding `CCCCC(c1c(O)c2ccccc2oc1=O)c1c(O)c2ccccc2oc1=O`, the 50% inhibitory concentration (IC50) was 64.6 µM. For the molecule `O=c1oc2ccccc2c(O)c1C(CCc1ccccc1)c1c(O)c2ccccc2oc1=O`, half-maximal inhibition (IC50) required 67.6 µM. In the case of `O=c1c(C(c2ccc(O)cc2)c2c(O)oc3ccccc3c2=O)c(O)oc2ccccc12` it was 74.1 µM. As for `COc1cccc(C(c2c(O)c3ccccc3oc2=O)c2c(O)c3ccccc3oc2=O)c1`, the figure is 56.2 µM. In the case of `COc1ccccc1C(c1c(O)c2ccccc2oc1=O)c1c(O)c2ccccc2oc1=O` it was 83.2 µM; in that of `CC(c1c(O)c2ccccc2oc1=O)c1c(O)c2ccccc2oc1=O`, 63.1 µM. As to `CCCC(c1c(O)c2ccccc2oc1=O)c1c(O)c2ccccc2oc1=O`, the IC50 is 67.6 µM. The IC50 values of the last two molecules are within 1.5-fold of each other. Consider `O=c1oc2ccccc2c(O)c1C(c1cccc(O)c1)c1c(O)c2ccccc2oc1=O`, for which the midpoint of inhibition, the IC50, lay at 72.4 µM. Molecule `O=c1oc2ccccc2c(O)c1C(c1cccc([N+](=O)[O-])c1)c1c(O)c2ccccc2oc1=O` showed an IC50 of 81.3 µM. This IC50 and that of the molecule before are within 1.5-fold of each other. With `C/C=C/C(c1c(O)c2ccccc2oc1=O)c1c(O)c2ccccc2oc1=O`, the IC50 is 43.7 µM.

Take `O=c1oc2ccccc2c(O)c1C(c1ccccc1Br)c1c(O)c2ccccc2oc1=O`: the half-inhibitory concentration (IC50) is 74.1 µM. Compared with the last molecule, the IC50 is about 1.7-fold higher. Molecule `COc1ccc(C(c2c(O)c3ccccc3oc2=O)c2c(O)c3ccccc3oc2=O)cc1OC` gave an IC50 of 79.4 µM.

Molecule `O=c1oc2ccccc2c(O)c1C(c1cccc(Cl)c1)c1c(O)c2ccccc2oc1=O` showed an IC50 of 74.1 µM. As to `Nc1cccc(C(c2c(O)c3ccccc3oc2=O)c2c(O)c3ccccc3oc2=O)c1`, the IC50 was 75.9 µM. Turning to `O=c1c(C(c2ccc([N+](=O)[O-])cc2)c2c(O)oc3ccccc3c2=O)c(O)oc2ccccc12`, the IC50 is 70.8 µM.

Molecule `O=c1oc2ccccc2c(O)c1Cc1c(O)c2ccccc2oc1=O` [DICUMAROL] had an IC50 of 15.1 µM. This IC50 lies about 4.7-fold lower than the previous one.
